A word on the inhibition: it is the percentage by which the read-out fell short of the control. Usually IC50 stands for the concentration that gives 50% inhibition.

In this assay the target is OR8/OR7 (Anopheles gambiae, UniProt Q7PUT5+Q7QCC7). The experiment in a line: Ca2+-imaging of stable HEK293T cell line OR8/OR7. The class given is cell-based. The note with it: for inhibition at 4 µM: HEK-293T, compound applied at 4 μM, read-out: Percent Inhibition OR8 OR7; for IC50: Table B, read-out: IC50 OR8. A digest of the protocol: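 Stable HEK293T lines co-expressing the Anopheles ligand-specific OR with co-receptor OR7 (or mouse TRPM8 alone) were seeded on poly-D-lysine at 10,000 cells/well and cultured 2 days. Cells were loaded with Ca-4 dye for 1.5 hr at room temperature, then odorant/compound solutions in HBSS were added on an FDSS6000 reader.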
Chain of OR8/OR7 (Q7QCC7 whole entry): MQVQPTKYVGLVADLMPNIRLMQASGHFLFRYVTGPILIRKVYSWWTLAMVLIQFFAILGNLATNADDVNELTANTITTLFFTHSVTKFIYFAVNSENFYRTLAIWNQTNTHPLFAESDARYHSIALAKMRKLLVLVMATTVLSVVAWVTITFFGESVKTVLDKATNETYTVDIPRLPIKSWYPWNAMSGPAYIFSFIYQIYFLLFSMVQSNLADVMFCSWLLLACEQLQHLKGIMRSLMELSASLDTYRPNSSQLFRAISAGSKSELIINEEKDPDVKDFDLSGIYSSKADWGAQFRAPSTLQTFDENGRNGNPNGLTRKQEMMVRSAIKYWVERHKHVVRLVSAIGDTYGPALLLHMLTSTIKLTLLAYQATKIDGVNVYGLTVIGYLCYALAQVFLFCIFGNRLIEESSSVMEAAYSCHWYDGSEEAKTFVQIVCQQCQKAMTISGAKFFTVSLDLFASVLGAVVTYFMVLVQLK
Chain of OR8/OR7 (Q7PUT5 entry or part of it): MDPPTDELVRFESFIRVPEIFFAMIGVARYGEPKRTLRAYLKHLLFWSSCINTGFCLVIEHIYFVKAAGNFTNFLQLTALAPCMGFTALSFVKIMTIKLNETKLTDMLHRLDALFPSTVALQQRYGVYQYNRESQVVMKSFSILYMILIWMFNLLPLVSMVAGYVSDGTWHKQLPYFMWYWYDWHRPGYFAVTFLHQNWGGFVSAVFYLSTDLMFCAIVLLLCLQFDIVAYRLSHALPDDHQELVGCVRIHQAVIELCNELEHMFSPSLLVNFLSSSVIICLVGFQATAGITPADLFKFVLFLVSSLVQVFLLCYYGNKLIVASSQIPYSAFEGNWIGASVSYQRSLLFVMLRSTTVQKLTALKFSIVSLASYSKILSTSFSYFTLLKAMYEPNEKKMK

For the compound `COCCCN(CC(=O)N1CCc2sccc2C1c1ccc(OC)cc1)C(=O)C(C)(C)CCl` (stereo not drawn) [RU-0069950], the inhibition at 4 µM was in the range of 26 to 50%. On the same count and under the same terms, under `COc1ccc(C(=O)c2ccccc2)c(O)c1O` [RU-0001617] stands below 25%; under `COc1ccccc1N1CCN(C(=O)c2cc3n(n2)CCN(Cc2c(F)cccc2Cl)C3=O)CC1` [RU-0043595], 26 to 50%. Still for that read-out and setting: next, `CC(NCc1ccccc1)c1nc2ccccc2c(=O)n1-c1ccc(Cl)cc1` (stereo not drawn) [RU-0072535]: below 25%. `COC(=O)C(Cc1ccccc1)NC(=O)C1CC1(c1ccccc1)c1ccccc1` (stereo not drawn) [RU-0028029]: the inhibition at 4 µM lay in the range of 51 to 74% and the IC50 was above 1000 nM. With `COc1ccc(N2CCN(C(=O)C3CC=CCC3C(=O)NCCCCc3ccccc3)CC2)cc1` (stereo not drawn) [RU-0026167], the inhibition at 4 µM fell in the range of 26 to 50%.

Consider `COc1nc(NC(C)C)nc(NC(C)C)n1` [RU-0001534], for which the inhibition at 4 µM was in the range of 26 to 50%. On the same count and under the same terms, next, `CCN(CC)C(=O)Oc1ccc2c(ccn2Cc2cccc(C)c2)c1NC(=O)[C@H](C)OC(C)=O` [RU-0075468]: below 25%; `CN(C)c1nc(N(C)C)nc(N(C)C)n1` [RU-0000619]: 26 to 50%. Regarding `COCCNC(=O)c1ccc(CSc2nnc(-c3ccc(C)cc3)n2-c2ccccc2F)cc1` [RU-0051652], the inhibition at 4 µM was below 25%. Still for that read-out and setting: next, `COc1ccc(N2CCN(C(=O)C3CC=CCC3C(=O)NC(c3ccccc3)c3ccccn3)CC2)cc1` (stereo not drawn) [RU-0026507]: below 25%. Consider `Cc1ccc(CN(Cc2ccc(F)cc2)C(=O)CN(C(=O)NC(C)(C)C)C2CC2)s1` [RU-0052360], for which the inhibition at 4 µM fell in the range of 51 to 74% and the IC50 is above 1000 nM. With `CCOC(=O)C(c1cccc(OC)c1)C1C=CC(NC(=O)c2cccs2)C1` (stereo not drawn) [RU-0074560], the inhibition at 4 µM is below 25%. Still for that read-out and setting: next, `CC(NC(=O)c1cc2n(n1)CCN(Cc1c(Cl)cccc1Cl)C2=O)c1ccccc1` (stereo not drawn) [RU-0045115]: below 25%; `Cc1ccc(CN(CCc2ccccc2)C(=O)CN(C(=O)NC(C)(C)C)C(C)C)o1` [RU-0072008]: below 25%.

On to `CCOC(=O)C(c1ccc(OC)c(OC)c1)C1C=CC(NC(=O)c2ccc3c(c2)OCO3)C1` (stereo not drawn) [RU-0049030], for which the inhibition at 4 µM was in the range of 26 to 50%. For `COCCCN(CC(=O)N1CCc2sccc2C1COc1cccc(OC)c1)C(=O)c1ccccc1OC` (stereo not drawn) [RU-0036294], the inhibition at 4 µM fell in the range of 51 to 74% and the IC50 is above 1000 nM. `C=C[C@@](C)(O)CCC1C(=C)CCC2[C@@](C)(CO)CCC[C@]12C` (stereo partly drawn) [RU-0001327]: the inhibition at 4 µM lay in the range of 26 to 50%. Still for that read-out and setting: under `COc1cc(OC)cc(C2NC(=O)N(C)C3=C2C(=O)N(C2CCCCC2)C3)c1` (stereo not drawn) [RU-0047750] stands below 25%. The same measure, in the same setting: next, `COCCCN(CC(=O)N1CCc2sccc2C1COc1cccc(OC)c1)C(=O)Cc1ccccc1` (stereo not drawn) [RU-0036264]: 26 to 50%; `COc1ccc(-c2nnc(SCc3ccc(C#N)cc3)n2-c2ccc(C)cc2)cc1` [RU-0046426]: 26 to 50%. On the same count and under the same terms, next, `COCCN(Cc1cc(Cl)ccc1OS(=O)(=O)c1ccc(F)cc1)C(=O)C1CCC1` [RU-0035287]: 26 to 50%. For `COc1nc(OCC#N)nc(N2CCCCC2)n1` [RU-0006256], the inhibition at 4 µM is 51 to 74% and the IC50 was above 1000 nM.

Regarding `CCOCCCN(CC(=O)N(Cc1ccc2c(c1)OCO2)Cc1sccc1C)C(=O)NC(C)(C)C` [RU-0052340], the inhibition at 4 µM is below 25%. Still for that read-out and setting: under `CCCCc1nc(CN2CCc3c([nH]c4ccccc34)C2c2cccc(OC)c2OC)c[nH]1` (stereo not drawn) [RU-0031879] stands 26 to 50%; under `O=C1CN(S(=O)(=O)c2c(F)cc(F)cc2F)CC2c3cccc(F)c3CCN12` (stereo not drawn) [RU-0076832], below 25%.
